Laboratory results published in patent US20100041642A1, “UREA INHIBITORS OF MAP KINASES” (LOCUS PHARMACEUTICALS, INC., priority 2008, published 2010).

biological target: p38 (Homo sapiens, UniProt Q16539); experiment: Protein Kinase Assay (33P incorporation from γ-[33P]ATP into GST-ATF-2); assay type: biochemical; conditions: 2 nM p38, preincubated 20 min at 30° C.; 10 uM cold ATP, 2 uM GST-ATF2, 70 min; read-out: ACT. (Activity), IC50 category in Protein Kinase Assay
In short: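 Compounds preincubated 20 min at 30 °C with 2 nM p38; reaction started with 2 uM GST-ATF-2 (aa 19-96) and 10 uM ATP plus γ-[33P]ATP, pH 7.5, 70 min at 30 °C, 2% DMSO. Phosphoric acid stop; 33P-labelled substrate captured on phosphocellulose and counted by scintillation.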

Sequence of p38 (Q16539 whole entry, the tested form may be a part): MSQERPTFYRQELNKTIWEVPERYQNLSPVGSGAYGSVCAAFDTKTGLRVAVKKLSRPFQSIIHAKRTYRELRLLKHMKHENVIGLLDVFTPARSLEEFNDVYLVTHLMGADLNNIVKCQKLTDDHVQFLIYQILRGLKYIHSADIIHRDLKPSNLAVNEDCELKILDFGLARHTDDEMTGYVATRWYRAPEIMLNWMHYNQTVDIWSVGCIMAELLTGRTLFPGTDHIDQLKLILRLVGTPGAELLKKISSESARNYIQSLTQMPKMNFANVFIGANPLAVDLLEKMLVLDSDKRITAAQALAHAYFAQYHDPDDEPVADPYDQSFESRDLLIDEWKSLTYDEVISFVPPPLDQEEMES

| SMILES | IC50 |
| --- | --- |
| CCNC(=O)c1ccc(-c2cc(NC(=O)Nc3sc(C(C)(C)C)nc3C(=O)N3CCN(C)C(=O)C3(C)C)ccc2C)cn1 [5-(5-(3-(2-tert-butyl-4-(2,2,4-trimethyl-3-oxopiperazine-1-carbonyl)thiazol-5-yl)ureido)-2-methylphenyl)-N-ethylpyridine-2-carboxamide] | < 100 nM |
| CCNC(=O)c1ccc(-c2cc(NC(=O)Nc3cc(C(C)(C)C)oc3C(=O)N3CCN(C)C(=O)C3(C)C)ccc2C)cn1 [5-(5-(3-(5-tert-butyl-2-(2,2,4-trimethyl-3-oxopiperazine-1-carbonyl)furan-3-yl)ureido)-2-methylphenyl)-N-ethylpyridine-2-carboxamide] | < 100 nM |
| CCNC(=O)c1ccc(-c2cc(NC(=O)Nc3cc(C(C)(C)C)sc3C(=O)N3CCN(C)C(=O)C3(C)C)ccc2C)cn1 [5-(5-(3-(5-tert-butyl-2-(2,2,4-trimethyl-3-oxopiperazine-1-carbonyl)thiophen-3-yl)ureido)-2-methylphenyl)-N-ethylpyridine-2-carboxamide] | < 100 nM |
| COCCNC(=O)c1ccc(-c2cc(NC(=O)Nc3sc(C(C)(C)C)cc3C(=O)N3CCN(C)C(=O)C3(C)C)ccc2C)cn1 [5-(5-(3-(5-tert-butyl-3-(2,2,4-trimethyl-3-oxopiperazine-1-carbonyl)thiophen-2-yl)ureido)-2-methylphenyl)-N-(2-methoxyethyl)pyridine-2-carboxamide] | < 100 nM |
| CCNC(=O)c1ccc(-c2cc(NC(=O)Nc3sc(C(C)(C)C)cc3C(=O)N3CCN(C)C(=O)C3(C)C)ccc2C)cn1 [5-(5-(3-(5-tert-butyl-3-(2,2,4-trimethyl-3-oxopiperazine-1-carbonyl)thiophen-2-yl)ureido)-2-methylphenyl)-N-ethylpyridine-2-carboxamide] | < 100 nM |
| CON(C)C(=O)c1ccc(-c2cc(NC(=O)Nc3sc(C(C)(C)C)cc3C(=O)N3CCN(C)C(=O)C3(C)C)ccc2C)cn1 [5-(5-(3-(5-tert-butyl-3-(2,2,4-trimethyl-3-oxopiperazine-1-carbonyl)thiophen-2-yl)ureido)-2-methylphenyl)-N-methoxy-N-methylpyridine-2-carboxamide] | < 100 nM |
| Cc1ccc(NC(=O)Nc2sc(C(C)(C)C)cc2C(=O)N2CCN(C)C(=O)C2(C)C)cc1-c1ccc(C(N)=O)nc1 [5-(5-(3-(5-tert-butyl-3-(2,2,4-trimethyl-3-oxopiperazine-1-carbonyl)thiophen-2-yl)ureido)-2-methylphenyl)pyridine-2-carboxamide] | < 100 nM |
| CCNC(=O)c1ccc(-c2cc(NC(=O)Nc3sc(C(C)(C)C)cc3C(=O)N3CCNC(=O)C3(C)C)ccc2C)cn1 [5-(5-(3-(5-tert-butyl-3-(2,2-dimethyl-3-oxopiperazine-1-carbonyl)thiophen-2-yl)ureido)-2-methylphenyl)-N-ethylpyridine-2-carboxamide] | < 100 nM |
| CNC(=O)c1ccc(-c2cc(NC(=O)Nc3sc(C(C)(C)C)cc3C(=O)N3CCNC(=O)C3(C)C)ccc2C)cn1 [5-(5-(3-(5-tert-butyl-3-(2,2-dimethyl-3-oxopiperazine-1-carbonyl)thiophen-2-yl)ureido)-2-methylphenyl)-N-methylpyridine-2-carboxamide] | < 100 nM |
| Cc1ccc(NC(=O)Nc2sc(C(C)(C)C)cc2C(=O)N2CCN(C)C(=O)C2(C)C)cc1-c1ccc(NS(C)(=O)=O)nc1 [N-(5-(5-(3-(5-tert-butyl-3-(2,2,4-trimethyl-3-oxopiperazine-1-carbonyl)thiophen-2-yl)ureido)-2-methylphenyl)pyridin-2-yl)methanesulfonamide] | < 100 nM |
| COC(=O)CN1CCN(C(=O)c2cc(C(C)(C)C)sc2NC(=O)Nc2ccc(C)c(-c3ccncc3)c2)C(C)(C)C1=O [methyl 2-(4-(2-tert-butyl-5-(3-(4-methyl-3-(pyridin-4-yl)phenyl)ureido)thiophene-4-carbonyl)-3,3-dimethyl-2-oxopiperazin-1-yl)acetate] | < 100 nM |
